For one data set, the system named is HCT-8. Description: Cytotoxicity against human HCT8 cells after 72 hrs by MTT assay. The data set is classed as functional, cell-based. Conditions: HCT-8, 72 h.
The subject of the next data set is MDA-MB-435. Put plainly: Cytotoxicity against human MDA-MB-435 cells after 72 hrs by MTT assay. The class given is functional, cell-based. The settings on record: MDA-MB-435, 72 h. (Tetrazolium dyes change colour on reduction, which living cells bring about.)
The next data set has as its system PC-3. Description: Cytotoxicity against human PC3 cells after 72 hrs by MTT assay. The class given is cell-based. Conditions: PC-3, 72 h.
For another data set, the system named is L929. Put plainly: Cytotoxicity against mouse L929 cells after 72 hrs by MTT assay. Conditions: L929, 72 h. The data set is classed as cell-based.
Data set [1] in a line: Toxicity assessed as hemolytic activity against mouse erythrocyte. The class given is cell-based. The settings on record: mouse erythrocytes.
The next data set concerns HL-60. Put plainly: Cytotoxicity against human HL60 cells after 72 hrs by MTT assay. The data set is classed as functional, cell-based. Conditions: HL-60, 72 h.
A further data set deals with SF-295. Description: Cytotoxicity against human SF295 cells after 72 hrs by MTT assay. The class given is functional, cell-based. Conditions: SF-295, 72 h.
The test system of another data set is B16. Put plainly: Cytotoxicity against mouse B16 cells after 72 hrs by MTT assay. The data set is classed as functional, cell-based. The settings on record: B16, 72 h.

Among the data in ChEMBL document CHEMBL1137493, “Synthesis and potent antitumor activity of new arylamino derivatives of nor-beta-lapachone and nor-alpha-lapachone” (Bioorg Med Chem, 2007) are IC50 and EC50 values, retold here.

Converted amounts (≈) assume the structure as drawn.

Take `Cc1ccc(C)c(NC2C3=C(OC2(C)C)c2ccccc2C(=O)C3=O)c1` (stereo not given): the IC50 with HCT-8 was 1.59 µg/mL (≈ 4.58 µM); with MDA-MB-435, 0.27 µg/mL (≈ 0.777 µM); in the data set with PC-3 it was 0.32 µg/mL (≈ 0.921 µM); with L929 it was above 5 µg/mL; with HL-60, 1.27 µg/mL (≈ 3.66 µM); in the data set with SF-295 it was 2.08 µg/mL (≈ 5.99 µM). The IC50 with B16 is 3.03 µg/mL (≈ 8.72 µM). The EC50 in data set [1] was above 200 µg/mL.

As for `CC1(C)OC2=C(C(=O)C(=O)c3ccccc32)C1Nc1ccc(F)cc1` (stereo not given), the IC50 in the data set with HCT-8 was 0.51 µg/mL (≈ 1.51 µM); in the data set with MDA-MB-435, 0.12 µg/mL (≈ 0.356 µM); in the data set on PC-3, 0.31 µg/mL (≈ 0.919 µM); in the data set with L929, 0.52 µg/mL (≈ 1.54 µM); with HL-60 it was 0.32 µg/mL (≈ 0.949 µM); in the data set on SF-295 it was 0.59 µg/mL (≈ 1.75 µM). This compound yielded an IC50 with B16 of 0.42 µg/mL (≈ 1.24 µM). In addition, in data set [1], the EC50 is above 200 µg/mL.

Take `CC1(C)OC2=C(C(=O)C(=O)c3ccccc32)C1Nc1cccc(Cl)c1` (stereo not given): the IC50 in the data set with HCT-8 stood at 0.51 µg/mL (≈ 1.44 µM); in the data set with MDA-MB-435, 0.17 µg/mL (≈ 0.48 µM); in the data set on PC-3, 0.49 µg/mL (≈ 1.38 µM); in the data set with L929, 1.16 µg/mL (≈ 3.28 µM); in the data set on HL-60, 0.39 µg/mL (≈ 1.1 µM); with SF-295, 0.36 µg/mL (≈ 1.02 µM). Besides, the IC50 with B16 stood at 0.56 µg/mL (≈ 1.58 µM). In data set [1], the EC50 is above 200 µg/mL.

For `CC1(C)OC2=C(C(=O)C(=O)c3ccccc32)C1Nc1cccc(Br)c1` (stereo not given), the IC50 amounted to 0.7 µg/mL (≈ 1.76 µM) with HCT-8; 0.2 µg/mL (≈ 0.502 µM) in the data set with MDA-MB-435; 0.46 µg/mL (≈ 1.16 µM) in the data set on PC-3; 1.02 µg/mL (≈ 2.56 µM) in the data set on L929; 0.5 µg/mL (≈ 1.26 µM) with HL-60; 0.93 µg/mL (≈ 2.34 µM) with SF-295. Also, the 50% inhibitory concentration (IC50) with B16 was determined as 0.48 µg/mL (≈ 1.21 µM). The EC50 in data set [1] was above 200 µg/mL.

As to `CC1(C)OC2=C(C(=O)C(=O)c3ccccc32)C1Nc1cccc([N+](=O)[O-])c1` (stereo not given), the IC50 is 0.64 µg/mL (≈ 1.76 µM) with HCT-8; 0.23 µg/mL (≈ 0.631 µM) with MDA-MB-435; 0.41 µg/mL (≈ 1.13 µM) with PC-3; 0.42 µg/mL (≈ 1.15 µM) with L929; 0.33 µg/mL (≈ 0.906 µM) in the data set on HL-60; 0.5 µg/mL (≈ 1.37 µM) in the data set with SF-295. For the same compound, half-maximal inhibition with B16 (IC50) required 0.43 µg/mL (≈ 1.18 µM). Besides, in data set [1], the EC50 is above 200 µg/mL.

As for `CC1(C)OC2=C(C(=O)C(=O)c3ccccc32)C1Nc1ccccc1` (stereo not given), the IC50 was found to be 0.99 µg/mL (≈ 3.1 µM) in the data set on HCT-8; 0.3 µg/mL (≈ 0.939 µM) with MDA-MB-435; 0.31 µg/mL (≈ 0.971 µM) in the data set with PC-3; 2.72 µg/mL (≈ 8.52 µM) with L929; 0.66 µg/mL (≈ 2.07 µM) in the data set with HL-60; 0.89 µg/mL (≈ 2.79 µM) in the data set on SF-295. The compound also came in with a 50% inhibitory concentration (IC50) in the data set with B16 of 0.74 µg/mL (≈ 2.32 µM). The EC50 in data set [1] is above 200 µg/mL.

Turning to `CC1(C)OC2=C(C(=O)c3ccccc3C2=O)C1Nc1ccccc1` (stereo not given), the concentration for half-maximal inhibition (IC50) in the data set on HCT-8 turned out to be 1.43 µg/mL (≈ 4.48 µM); with MDA-MB-435, 0.89 µg/mL (≈ 2.79 µM); in the data set with PC-3, 1.34 µg/mL (≈ 4.2 µM); in the data set with L929, 3.08 µg/mL (≈ 9.64 µM); in the data set on HL-60 it was 2.99 µg/mL (≈ 9.36 µM); in the data set on SF-295, 2.52 µg/mL (≈ 7.89 µM). Further, inhibition in the data set with B16 was half-maximal at 1 µg/mL (≈ 3.13 µM) (IC50). Besides, in data set [1], the EC50 was above 200 µg/mL.

As for `COc1cccc2c1C(=O)c1c(O)c3c(c(O)c1C2=O)C[C@@](O)(C(=O)CO)C[C@@H]3O[C@H]1C[C@H](N)[C@H](O)[C@H](C)O1` [DOXORUBICIN], the IC50 in the data set with HCT-8 came to 0.04 µg/mL (≈ 0.0736 µM); with PC-3, 0.24 µg/mL (≈ 0.442 µM); in the data set on SF-295, 0.25 µg/mL (≈ 0.46 µM); with B16, 0.03 µg/mL (≈ 0.0552 µM).

`CC1(C)CCC2=C(O1)c1ccccc1C(=O)C2=O` [LAPACHONE]: the IC50 in the data set with HCT-8 was 0.2 µg/mL (≈ 0.826 µM); in the data set with MDA-MB-435, 0.06 µg/mL (≈ 0.248 µM); in the data set on HL-60, 0.4 µg/mL (≈ 1.65 µM); in the data set on SF-295, 0.22 µg/mL (≈ 0.908 µM). Also, the EC50 in data set [1] is above 200 µg/mL.

For `CC1(C)CC2=C(O1)c1ccccc1C(=O)C2=O` [NOR-BETA-LAPACHONE], the IC50 worked out at 0.31 µg/mL (≈ 1.36 µM) in the data set with HCT-8, 0.07 µg/mL (≈ 0.307 µM) with MDA-MB-435, 0.4 µg/mL (≈ 1.75 µM) with HL-60 and 0.36 µg/mL (≈ 1.58 µM) with SF-295. Besides, the EC50 in data set [1] is above 200 µg/mL.

What is called IC50 is the concentration at which inhibition is half-maximal. A higher IC50 goes with a need for much substance. A word on the EC50: it is the concentration giving half of the maximal effect.
